What is called IC50 is the concentration that gives 50% inhibition.

T1 sequence (Q00987 17-125): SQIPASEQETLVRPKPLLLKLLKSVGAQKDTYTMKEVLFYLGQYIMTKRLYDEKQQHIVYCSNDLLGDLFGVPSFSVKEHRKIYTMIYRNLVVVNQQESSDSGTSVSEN

The assay has as its target T1, HDM2 (Homo sapiens, UniProt Q00987).
T1 construct: Thioredoxin (N); made in house; host or cells: E. coli strain BL21(DE3)Rosetta
The assay can be described thus: HDM2 FRET assay (inhibition of binding of FITC labeled p53-pocket peptide to HDM2). The following applies: 0.5 nM HDM2 (residues 17 to 125), 3nM peptide, two hour incubation at room temperature; read-out: FRET IC50. In a few lines: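 Signal is read as the 520/495 nm emission ratio and converted to percent inhibition; nonlinear sigmoidal regression yields IC50. The assay mixes HDM2 (0.5 nM), FITC-p53 peptide (3 nM) and Tb anti-His antibody (0.25 nM) at 0.1% DMSO.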
`C[C@@H](Nc1nc(C(=O)O)nc2nc(-c3cc(C4CCC4)ccn3)n(C[C@H]3CC[C@H](C)CC3)c12)C1CCC1` [Example 15.18, 6-{[(1R)-1-cyclobutylethyl]amino}-8-(4-cyclobutylpyridin-2-yl)-7-[(trans-4-methylcyclohexyl)methyl]-7H-purine-2-carboxylic acid]: the IC50 came to 1.8 nM.
To `C[C@H](C1CCC1)N(C)c1nc(C(=O)O)nc2nc(-c3cc(C(C)(C)C)ccn3)n(C[C@H]3CC[C@H](C)CC3)c12` [Example 15.20, 8-(4-tert-butylpyridin-2-yl)-6-{[(1R)-1-cyclobutylethyl] (methyl)amino} -7-[(trans-4-methylcyclohexyl)methyl]-7H-purine-2-carboxylic acid] belongs 17.9 nM; to `Cc1cnc(-c2nc3nc(C(=O)O)nc(N[C@H](C)C4CCC4)c3n2C[C@H]2CC[C@H](C)CC2)cc1C` [Example 15.21, 6-{[(1R)-1-cyclobutylethyl]amino}-8-(4,5-dimethylpyridin-2-yl)-7-[(trans-4-methylcyclohexyl)methyl]-7H-purine-2-carboxylic acid], 8.44 nM.
To `CC(C)c1ccnc(-c2nc3nc(C(=O)O)nc(N[C@H](C)C(F)(F)F)c3n2C[C@H]2CC[C@H](C)CC2)c1` [Example 15.22, 7-[(trans-4-methylcyclohexyl)methyl]-8-[4-(1-methylethyl)pyridin-2-yl]-6-{[(1R)-2,2,2-trifluoro-1-methylethyl]amino}-7H-purine-2-carboxylic acid] belongs 17.9 nM; to `C[C@@H](Nc1nc(-c2noc(=O)[nH]2)nc2nc(-c3cc(C(C)(C)O)ccn3)n(C[C@H]3CC[C@H](C)CC3)c12)C1CCC1` [Example 15.23, 3-(6-{[(1R)-1-cyclobutylethyl]amino}-8-[4-(1-hydroxy-1-methylethyl)pyridin-2-yl]-7-[(trans-4-methylcyclohexyl)methyl]-7H-purin-2-yl)-1 ,2,4-oxadiazol-5(4H)-one], 4.75 nM.
To `CCN(c1nc(-c2noc(=O)[nH]2)nc2nc(-c3cc(C(C)C)ccn3)n(C[C@H]3CC[C@H](C)CC3)c12)[C@H](C)C1CCC1` [Example 15.24, 3-(6-{[(1R)-1-cyclobutylethyl](ethyl)amino}-7-[(trans-4-methylcyclohexyl)methyl]-8-[4-(1-methylethyl)pyridin-2-yl]-7H-purin-2-yl)-1,2,4-oxadiazol-5(4H)-one] belongs 716 nM; to `CC(C)c1cc(-c2nc3nc(-c4noc(=O)[nH]4)nc(N[C@H](C)C4CCC4)c3n2C[C@H]2CC[C@H](C)CC2)[nH]c(=O)c1` [Example 15.25, 6-[6-{[(1R)-1-cyclobutylethyl]amino}-7-[(trans-4-methylcyclohexyl)methyl]-2-(5-oxo-2,5-dihydro-1,2,4-oxadiazol-3-yl)-7H-purin-8-yl]-4-(1-methylethyl)pyridin-2(1H)-one], 6.74 nM; to `C[C@H]1CC[C@H](Cn2c(N3CCOCC3)nc3nc(-c4noc(=O)[nH]4)nc(-c4cccc(Cl)c4)c32)CC1` [Example 16.1, 3-(6-(3-chlorophenyl)-7-(((trans)-4-methylcyclohexyl)methyl)-8-morpholino-7H-purin-2-yl)-1,2,4-oxadiazol-5(4H)-one], 71.7 nM.
Consider `C[C@H]1COCCN1c1nc2nc(-c3noc(=O)[nH]3)nc(-c3cccc(Cl)c3)c2n1C[C@H]1CC[C@H](C)CC1` [Example 16.2, 3-(6-(3-chlorophenyl)-7-(((trans)-4-methylcyclohexyl)methyl)-8-((S)-3-methylmorpholino)-7H-purin-2-yl)-1,2,4-oxadiazol-5(4H)-one], for which the IC50 stood at 106 nM.
To `Cc1cccc(-c2nc(-c3n[nH]c(=O)o3)nc3nc(N4CCOCC4)n(C[C@H]4CC[C@H](C)CC4)c23)c1` [Example 16.3, 5-(7-(((trans)-4-methylcyclohexyl)methyl)-8-morpholino-6-(m-tolyl)-7H-purin-2-yl)-1,3,4-oxadiazol-2(3H)-one] belongs 563 nM.

For the origin of these results see patent EP2951180B1, “2,6,7,8 SUBSTITUTED PURINES AS HDM2 INHIBITORS” (Merck Sharp & Dohme Corp., priority 2013, dated 2014).
